Assay: Evaluation of water solubility of deprotected pterostilbene linked bodies
Type: physicochemical
Conditions: ion-exchanged water; solubility threshold could not be measured because the compound was extremely water-soluble
Protocol: The deprotected pterostilbene linked body obtained in Examples were evaluated for water solubility using the following method. In FIGs 1 and 2, the numbers in the ellipses for each compound represent a level of water solubility as a molar ratio, with the water solubility of F1 (pterostilbene) (21 mg (0.0819 mmol) dissolved in 1 liter) being set at 1.0. The water solubility of F1 (pterostilbene) was determined using the value described in Sarah J. Bethune et al., Cryst. Growth Des. 2011, 11, 2817-2823. The water solubility of F1 glycoside (pterostilbene monoglycoside) was determined using the value described in Jose L. Gonzalez-Alfonso et al., Molecules 2018, 23, 1271.
Into a round-bottom flask was weighed 1.0 g of the compound and 100 mL of ion-exchanged water in sequence and the mixture was heated with a heat gun for about 1 minute, taking care not to boil the mixture, and then cooled to room temperature and allowed to stand. After 24 hours, the residue was removed by filtration, and the filtrate was concentrated under reduced pressure. A water solubility of each compound was calculated from the weight of the compound recovered from the filtrate.
In a round-bottom flask, a solution was prepared the amounts of the compound and ion-exchanged water shown in Figure 1, and a water solubility of the compound was calculated. Because the compound was extremely water-soluble, a water solubility threshold could not be measured. However, compared to the hardly water-soluble F1, its water solubility was 2×10^4 times or more, that is, extremely higher.

| water solubility compared to the hardly water-soluble F1 | Structure (SMILES) |
| --- | --- |
| ≥ 2×10^4 times | COc1cc(/C=C/c2ccc(OCC(COC(CO)CO)(COC(CO)CO)COC(CO)CO)cc2)cc(OC)c1 [H129, (E)-2,2'-((2-(((1,3-dihydroxypropan-2-yl)oxy)methyl)-2-((4-(3,5-dimethoxystyryl)phenoxy)methyl)propane-1,3-diyl)bis(oxy))bis(propane-1,3-diol)] |
| ≥ 2×10^4 times | COc1cc(/C=C/c2ccc(OCC(COCC(O)CO)(COCC(O)CO)COCC(O)CO)cc2)cc(OC)c1 (stereo not drawn) [H139, (E)-3,3'-((2-((2,3-dihydroxypropoxy)methyl)-2-((4-(3,5-dimethoxystyryl)phenoxy)methyl)propane-1,3-diyl)bis(oxy))bis(propane-1,2-diol)] |
| ≥ 2×10^4 times | COc1cc(/C=C/c2ccc(OCC(CO)(CO)COCC(COCC(CO)(CO)CO)(COCC(CO)(CO)CO)COCC(CO)(CO)CO)cc2)cc(OC)c1 [J119, (E)-2,2'-(((2-((3-(4-(3,5-dimethoxystyryl)phenoxy)-2,2-bis(hydroxymethyl)propoxy)methyl)-2-((3-hydroxy-2,2-bis(hydroxymethyl)propoxy)methyl)propane-1,3-diyl)bis(oxy))bis(methylene))bis(2-(hydroxymethyl)propane-1,3-diol)] |
| ≥ 2×10^4 times | COc1cc(/C=C/c2ccc(OCC(CO)(CO)COCC(COC(CO)CO)(COC(CO)CO)COC(CO)CO)cc2)cc(OC)c1 [J129, (E)-2,2'-((2-(((1,3-dihydroxypropan-2-yl)oxy)methyl)-2-((3-(4-(3,5-dimethoxystyryl)phenoxy)-2,2-bis(hydroxymethyl)propoxy)methyl)propane-1,3-diyl)bis(oxy))bis(propane-1,3-diol)] |
| ≥ 2×10^4 times | COc1cc(/C=C/c2ccc(OCC(CO)(CO)COCC(COCC(O)CO)(COCC(O)CO)COCC(O)CO)cc2)cc(OC)c1 (stereo not drawn) [J139, (E)-3,3'-((2-((2,3-dihydroxypropoxy)methyl)-2-((3-(4-(3,5-dimethoxystyryl)phenoxy)-2,2-bis(hydroxymethyl)propoxy)methyl)propane-1,3-diyl)bis(oxy))bis(propane-1,2-diol)] |
| ≥ 2×10^4 times | COc1cc(/C=C/c2ccc(OCC(CO)(CO)COC(COCC(CO)(CO)CO)COCC(CO)(CO)CO)cc2)cc(OC)c1 [J219, (E)-2,2'-(((2-(3-(4-(3,5-dimethoxystyryl)phenoxy)-2,2-bis(hydroxymethyl)propoxy)propane-1,3-diyl)bis(oxy))bis(methylene))bis(2-(hydroxymethyl)propane-1,3-diol)] |
| ≥ 2×10^4 times | COc1cc(/C=C/c2ccc(OCC(CO)(CO)COC(COC(CO)CO)COC(CO)CO)cc2)cc(OC)c1 [J229, (E)-2,2'-((2-(3-(4-(3,5-dimethoxystyryl)phenoxy)-2,2-bis(hydroxymethyl)propoxy)propane-1,3-diyl)bis(oxy))bis(propane-1,3-diol)] |
| ≥ 2×10^4 times | COc1cc(/C=C/c2ccc(OCC(CO)(CO)COC(COCC(O)CO)COCC(O)CO)cc2)cc(OC)c1 (stereo not drawn) [J239, (E)-3,3'-((2-(3-(4-(3,5-dimethoxystyryl)phenoxy)-2,2-bis(hydroxymethyl)propoxy)propane-1,3-diyl)bis(oxy))bis(propane-1,2-diol)] |

Same assay, conditions: water solubility of F1 (pterostilbene) set at 1.0 (reference)

| level of water solubility as a molar ratio | Structure (SMILES) |
| --- | --- |
| 1.0 | COc1cc(/C=C/c2ccc(O)cc2)cc(OC)c1 [F1, (E)-4-(3,5-dimethoxystyryl)phenol, reference compound] |

— patent publication EP4752139A1, “BRANCHED MULTI-HYDROXYL-PROTECTING OLIGOMER, LINKED BODY BONDED THEREWITH, AND BRANCHED MULTI-HYDROXYL OLIGOMER OBTAINED BY DEPROTECTING SAID LINKED BODY” (Tomoike Bio Ltd., priority 2023, dated 2025)
